# Experimental data taken from patent US6800639B2, “Pharmaceutical combination for the treatment of cancer” (Shire BioChem Inc., priority 2001, dated 2004).
# Assays:
# [1] = system: Panc-01 Human Pancreatic Tumor Xenograft; assay: Troxacitabine ± Gemcitabine vs. Panc-01 human pancreatic tumor xenograft; settings: for Deaths / Mice with Complete Shrinkage / Mice with Partial Shrinkage: n = 10
# Experimental: (§1) Female nude mice weighing approximately 20 g were implanted s.c. by trocar with fragments of human tumor harvested from s.c. growing tumors in nude mice hosts. When the tumors were approximately 58mg in size (12 days following inoculation), the animals were pair-matched into treatment and control groups. Each group contained 10 mice, each of which was ear-tagged and followed individually throughout the experiment. Initial doses were given on Day 1 following pair matching. […] Gemcitabine (Eli Lilly, Lot# 4MT16M) was administered intraperitoneally at 40 mg/kg and 80 mg/kg on a q3d×4 schedule.
# (§2) Mice were weighed twice weekly, and tumor measurements were taken by calipers twice weekly, starting on Day 1. These tumor measurements were converted to mg tumor weight by a well-known formula, (W^2×L)/2. The experiment was terminated when the control group tumor size reached an average of 1 gram. Upon termination, the mice were weighed, sacrificed and their tumors were excised. The tumors were weighed, and the mean tumor weight per group was calculated.
# (§3) Some drugs may cause tumor shrinkage in these tumor enograft models. With these agents, the final weight of a given tumor is subtracted from its own weight at the start of treatment on Day 1. This difference, divided by the initial tumor weight, is converted to percent shrinkage. The mean percent tumor shrinkage can be calculated from data from the mice in a group that experienced tumor regressions. If the tumor completely disappears in a mouse, it is considered a complete regression or complete tumor shrinkage.
# [2] = system: MiaPaCa Human Pancreatic Tumor Xenograft; assay: Troxacitabine ± Gemcitabine vs. MiaPaCa human pancreatic tumor xenograft; settings: for # of Toxic Deaths / Mice with Complete Shrinkage / Mice with Partial Shrinkage: n 10
# Experimental: as §1, §2, §3
# CCRF-CEM cells = assay: MTT assay with CalcuSyn median-effect analysis, Troxacitabine/araC on CCRF-CEM cells; format: cell-based
# Excerpt: The absorbance at 490 nm is directly proportional to the number of living cells in culture at a certain time point. […] Enz. Regulation 22, 1984, pp.27-55. […] Combinations of drugs were then generated around the IC50's of each drug to allow a constant ratio in order to determine if the combination was additive, synergistic or antagonistic. […] A CI below 1 is an indication of synergy, while a CI equal to 1 represents additivity, and a CI above 1 indicates antagonism.
# [3] = system: patients with refractory/relapsed leukemia; assay: β-L OddC alone in patients with refractory/relapsed leukemia; format: in vivo, human; settings: single agent; 16 evaluable AML patients
# Experimental: A study was conducted to investigate the activity of β-L OddC as a single agent in patients with refractory/relapsed leukemia. The study involved the treatment of patients with refractory or relapsed acute myeloid (AML) or lymphocytic (ALL) leukemia, myelodysplastic syndromes (MDS), or chronic myelogenous leukemia in blastic Phase (CML-BP). A total of 42 patients were treated in the study. As a result, a total of 39 patients were assessable for responses.
# [4] = Determination of maximum tolerated dose (MTD) in non-tumored mice; format: in vivo; settings: i.v. qd×5 schedule
smiles,measurement,setting,value
"Nc1ccn([C@@H]2O[C@H](CO)[C@@H](O)C2(F)F)c(=O)n1 [Gemcitabine, reference compound]",% Tumor Growth Inhibition,"[1]; 40 mg/kg i.p., q3d × 4",49.8%
same,Final Tumor Wt. (Mean ± SEM),"[1]; 40 mg/kg i.p., q3d × 4",457.8 ± 113.9 mg
same,Deaths,"[1]; 40 mg/kg i.p., q3d × 4",0
same,Mice with Complete Shrinkage,"[1]; 40 mg/kg i.p., q3d × 4",0
same,Mice with Partial Shrinkage,"[1]; 40 mg/kg i.p., q3d × 4",0
same,% Tumor Growth Inhibition,"[1]; 80 mg/kg i.p., q3d × 4",74.3%
same,Final Tumor Wt. (Mean ± SEM),"[1]; 80 mg/kg i.p., q3d × 4",262.2 ± 67.7 mg
same,Deaths,"[1]; 80 mg/kg i.p., q3d × 4",0
same,Mice with Complete Shrinkage,"[1]; 80 mg/kg i.p., q3d × 4",0
same,Mice with Partial Shrinkage,"[1]; 80 mg/kg i.p., q3d × 4",0
same,% Tumor Growth Inhibition,"[2]; 40 mg/kg i.p., q3d × 4",37.3%
same,Final Tumor Wt. (Mean ± SEM),"[2]; 40 mg/kg i.p., q3d × 4",733.0 ± 98.7 mg
same,# of Toxic Deaths,"[2]; 40 mg/kg i.p., q3d × 4",0
same,Mice with Complete Shrinkage,"[2]; 40 mg/kg i.p., q3d × 4",0
same,Mice with Partial Shrinkage,"[2]; 40 mg/kg i.p., q3d × 4",0
same,% Tumor Growth Inhibition,"[2]; 80 mg/kg i.p., q3d × 4",53.6%
same,Final Tumor Wt. (Mean ± SEM),"[2]; 80 mg/kg i.p., q3d × 4",553.8 ± 124.3 mg
same,# of Toxic Deaths,"[2]; 80 mg/kg i.p., q3d × 4",1
same,Mice with Complete Shrinkage,"[2]; 80 mg/kg i.p., q3d × 4",0
same,Mice with Partial Shrinkage,"[2]; 80 mg/kg i.p., q3d × 4",0
"Nc1ccn([C@@H]2CO[C@H](CO)O2)c(=O)n1 [Troxacitabine, (−)-β-L-Dioxolane-Cytidine]",% Toxicity,"CCRF-CEM cells; Troxacitabine 20 nM, 72 h continuous exposure",0%
same,% Toxicity,"CCRF-CEM cells; Troxacitabine 31 nM, 2 h exposure, MTT at 72 hr",3 ± 3%
same,% Toxicity,"CCRF-CEM cells; Troxacitabine 62 nM, 2 h exposure, MTT at 72 hr",12 ± 7%
same,% Toxicity,"CCRF-CEM cells; Troxacitabine 100 nM, 72 h continuous exposure",28 ± 5%
same,% Toxicity,"CCRF-CEM cells; Troxacitabine 125 nM, 2 h exposure, MTT at 72 hr",11 ± 2%
same,% Toxicity,"CCRF-CEM cells; Troxacitabine 250 nM, 2 h exposure, MTT at 72 hr",24 ± 3%
same,% Toxicity,"CCRF-CEM cells; Troxacitabine 500 nM, 2 h exposure, MTT at 72 hr",34 ± 6%
same,% Toxicity,"CCRF-CEM cells; Troxacitabine 500 nM, 72 h continuous exposure",65 ± 2%
same,% Toxicity,"CCRF-CEM cells; Troxacitabine 2500 nM, 72 h continuous exposure",90 ± 2%
same,% Toxicity,"CCRF-CEM cells; Troxacitabine 12500 nM, 72 h continuous exposure",98 ± 1%
same,complete remissions,[3],2
same,partial remissions,[3],1
same,remission rate (complete + partial),[3],18%
same,Final Tumor Wt. (Mean ± SEM),"[1]; 10 mg/kg i.v., qd × 5",11.1 ± 2.1 mg
same,Mean % Tumor Shrinkage,"[1]; 10 mg/kg i.v., qd × 5",77.5%
same,Deaths,"[1]; 10 mg/kg i.v., qd × 5",0
same,Mice with Complete Shrinkage,"[1]; 10 mg/kg i.v., qd × 5",1
same,Mice with Partial Shrinkage,"[1]; 10 mg/kg i.v., qd × 5",9
same,Final Tumor Wt. (Mean ± SEM),"[1]; 25 mg/kg i.v., qd × 5",12.5 ± 1.9 mg
same,Mean % Tumor Shrinkage,"[1]; 25 mg/kg i.v., qd × 5",72.6%
same,Deaths,"[1]; 25 mg/kg i.v., qd × 5",0
same,Mice with Complete Shrinkage,"[1]; 25 mg/kg i.v., qd × 5",1
same,Mice with Partial Shrinkage,"[1]; 25 mg/kg i.v., qd × 5",9
same,maximum tolerated dose,[4],greater than 25 mg/kg
same,% Tumor Growth Inhibition,"[2]; 10 mg/kg i.v., qd × 5",23.9%
same,Final Tumor Wt. (Mean ± SEM),"[2]; 10 mg/kg i.v., qd × 5",872.7 ± 171.1 mg
same,# of Toxic Deaths,"[2]; 10 mg/kg i.v., qd × 5",3
same,Mice with Complete Shrinkage,"[2]; 10 mg/kg i.v., qd × 5",0
same,Mice with Partial Shrinkage,"[2]; 10 mg/kg i.v., qd × 5",0
same,% Tumor Growth Inhibition,"[2]; 25 mg/kg i.v., qd × 5",29.7%
same,Final Tumor Wt. (Mean ± SEM),"[2]; 25 mg/kg i.v., qd × 5",813.4 ± 57.9 mg
same,# of Toxic Deaths,"[2]; 25 mg/kg i.v., qd × 5",0
same,Mice with Complete Shrinkage,"[2]; 25 mg/kg i.v., qd × 5",0
same,Mice with Partial Shrinkage,"[2]; 25 mg/kg i.v., qd × 5",0
